Test results reported in patent publication US7833331B2, “Non-toxic corrosion-protection pigments based on cobalt” (University of Dayton, priority 2007, dated 2010).
Where “and” joins values, the source holds several entries; their conditions need not be identical. Equal entries are not always repeated.

Tests used:
[1] = ASTM B-117 static salt fog test of PVB wash primer with pigment, rated by ASTM D-1654; conditions: ASTM D-1654 rating; for 2024-T3 B-117 Proc. A / 7075-T6 B-117 Proc. A: failure at scribe; for 2024-T3 B-117 Proc. B / 7075-T6 B-117 Proc. B: failure in unscribed areas
Method: (§1) The corrosion inhibiting performance of CoIII pigments was evaluated by incorporating them into primer paint formulations. The acid wash primer paint formulations called out in DoD-P-15328 [Primer (Wash), Pretreatment (Formulation No. 117 for Metals)] were used to test the various pigments. The wash primer is composed of a resin, an acid, a corrosion inhibiting pigment, powdered talc, and carbon lampblack. The acid content of this wash primer provides a rigorous initial test of the stability and performance of the pigments. Other, more benign, polymer-based binder and resin systems might not separate the compounds based on their performance as effectively or as rapidly. The base solution for the wash primer in this specification was prepared by mixing 88.3 grams of isopropanol, 31.3 grams of n-butanol, and 3.8 grams of deionized water with 14 grams of poly(vinyl butyral) resin (PVB) (Monsanto Butvar B-90TM). PVB was used exclusively throughout testing to avoid preparation and compositional complications during analysis of pigment performance. However, the invention is not limited to the use of PVB. Acid diluent was prepared by mixing 70 grams of 85% phosphoric acid, 63 grams of deionized water, and 247 grams of isopropanol. Finely-ground pigment powder was measured out and added to 13.74 grams of the base solution for each paint to be tested. A small amount (0.2 g) of powdered talc (magnesium silicate) “filler” was added. Lampblack was not added to these samples. These components were mixed thoroughly by hand and 3.8 g of phosphoric acid diluent added with further mixing. This rough processing allowed direct comparisons of pigment performance to be made without complications due to powder treatments, modifications, and additives. […] This is not the conventional paint application procedure for aluminum alloys. Under normal service conditions, aluminum alloys are first subjected to a hexavalent chromium-containing conversion coating prior to primer application. However, the conversion coating was omitted so that the performance of the pigment alone could be evaluated and not the synergistic effects of hexavalent chromium (in the conversion coating) or even of barrier films (in the phosphate or anodized coatings). Multiple samples of specific pigment compositions were prepared and tested. […] The chromate pigments were prepared identically to those used to test CoIII composition variations. PVB wash primers containing various pigment formulations were evaluated by exposing them to static salt fog (ASTM B-117) and cyclic Prohesiomm (ASTM G-85.5) accelerated corrosion tests. ASTM B-117 is a traditional corrosion “proof” test that has little relation to a real working environment. This accelerated corrosion test exposes samples to a constant salt-water fog and is a de facto test of solubility for corrosion inhibitors. […] This is particularly true of inhibitors and compounds that have not been fully optimized with respect to solubility. ASTM G-85.5 (ProhesionTM) is a cyclic corrosion test that more closely resembles real working environments. This accelerated corrosion test exposes samples to a cycle of fog of dilute salt and ammonium sulfate at room temperature followed by forced-air drying at an elevated temperature. This is a more realistic test of the ability of a compound to inhibit corrosion. Results of these tests can be combined to gain insight into how a particular coating or compound will perform relative to a standard as well as helping identify strengths and weaknesses in the performance of the material. ASTM D-1654 evaluation standard for painted or coated specimens subjected to corrosive environments was used to evaluate the performance of the coatings. After the paint dried for 24 hours, each plate was scribed with an X and the plate edges were sealed with PVC tape to eliminate corrosion edge effects. Two visual observations are associated with this rating test. […]

[2] = ASTM G-85.5 cyclic Prohesion test of PVB wash primer with pigment, rated by ASTM D-1654; conditions: ASTM D-1654 rating; for 2024-T3 G-85 Proc. A / 7075-T6 G-85 Proc. A: failure at scribe; for 2024-T3 G-85 Proc. B / 7075-T6 G-85 Proc. B: failure in unscribed areas
Method: as §1

[3] = 144 hours, inhibitor conc. 1.49 × 10^−3 M (20% of Cr)
[4] = 117 hours, inhibitor conc. 1.49 × 10^−3 M (20% of Cr)
[5] = 139 hours, inhibitor conc. 7.44 × 10^−4 M (10% of Cr)
[6] = 139 hours, inhibitor conc. 1.49 × 10^−3 M (20% of Cr)
[7] = 139 hours, inhibitor conc. 3.72 × 10^−3 M (50% of Cr)

Row | Substance | 2024-T3 B-117 Proc. A [1, 3] | 7075-T6 B-117 Proc. A [1, 3] | 2024-T3 B-117 Proc. B [1, 3] | 7075-T6 B-117 Proc. B [1, 3] | 2024-T3 G-85 Proc. A [2, 3] | 7075-T6 G-85 Proc. A [2, 3] | 2024-T3 G-85 Proc. B [2, 3] | 7075-T6 G-85 Proc. B [2, 3] | 2024-T3 B-117 Proc. A [1, 6] | 7075-T6 B-117 Proc. A [1, 6] | 2024-T3 B-117 Proc. B [1, 6] | 7075-T6 B-117 Proc. B [1, 6] | 2024-T3 G-85 Proc. A [2, 6] | 7075-T6 G-85 Proc. A [2, 6] | 2024-T3 G-85 Proc. B [2, 6] | 7075-T6 G-85 Proc. B [2, 6] | other results
1 | barium 10-molybdocobaltate | 7 | 6 | 6 | 5 | 7 | 7 | 7 | 7 |  |  |  |  |  |  |  |  | 
2 | calcium 6-molybdocobaltate |  |  |  |  |  |  |  |  |  |  |  |  |  |  |  |  | 2024-T3 B-117 Proc. A [1, 4]: 7 and 6; 7075-T6 B-117 Proc. A [1, 4]: 7; 2024-T3 B-117 Proc. B [1, 4]: 5 and 6; 7075-T6 B-117 Proc. B [1, 4]: 6; 2024-T3 G-85 Proc. A [2, 4]: 8; 7075-T6 G-85 Proc. A [2, 4]: 8; 2024-T3 G-85 Proc. B [2, 4]: 7; 7075-T6 G-85 Proc. B [2, 4]: 8
3 | calcium 10-molybdocobaltate | 7 | 7 and 6 | 6 | 6 | 9 | 8 and 9 | 8 | 7 and 8 |  |  |  |  |  |  |  |  | 
4 | zinc 10-molybdocobaltate | 7 | 7 | 7 | 7 and 5 | 6 and 7 | 7 | 7 and 6 | 6 |  |  |  |  |  |  |  |  | 
5 | strontium 10-molybdocobaltate | 6 and 7 | 7 and 6 | 5 | 6 and 5 | 7 | 7 | 6 | 6 |  |  |  |  |  |  |  |  | 
6 | barium 11-tungstophosphocobaltate |  |  |  |  |  |  |  |  |  |  |  |  |  |  |  |  | 2024-T3 B-117 Proc. A [1, 5]: 7; 7075-T6 B-117 Proc. A [1, 5]: 7; 2024-T3 B-117 Proc. B [1, 5]: 6; 7075-T6 B-117 Proc. B [1, 5]: 6; 2024-T3 G-85 Proc. A [2, 5]: 7; 7075-T6 G-85 Proc. A [2, 5]: 7; 2024-T3 G-85 Proc. B [2, 5]: 7 and 6; 7075-T6 G-85 Proc. B [2, 5]: 6
7 | zinc 10-vanadatocobaltate |  |  |  |  |  |  |  |  | 9 | 8 and 9 | 9 and 8 | 8 and 9 | 7 | 7 | 6 | 6 | 
8 | sodium 10-vanadatocobaltate |  |  |  |  |  |  |  |  | 9 | 6 | 8 | 7 | 8 | 7 | 7 | 6 | 
9 | magnesium periodatocobaltate |  |  |  |  |  |  |  |  |  |  |  |  |  |  |  |  | 2024-T3 B-117 Proc. A [1, 7]: 7; 7075-T6 B-117 Proc. A [1, 7]: 7; 2024-T3 B-117 Proc. B [1, 7]: 6; 7075-T6 B-117 Proc. B [1, 7]: 6; 2024-T3 G-85 Proc. A [2, 7]: 7 and 8; 7075-T6 G-85 Proc. A [2, 7]: 7; 2024-T3 G-85 Proc. B [2, 7]: 7 and 8; 7075-T6 G-85 Proc. B [2, 7]: 7
10 | calcium 10-vanadatocobaltate |  |  |  |  |  |  |  |  | 8 | 7 | 7 | 6 | 7 and 8 | 7 | 6 | 6 | 
11 | magnesium 10-molybdocobaltate | 7 | 7 | 6 | 6 | 9 and 8 | 9 | 8 and 7 | 7 and 8 |  |  |  |  |  |  |  |  | 
12 | magnesium 10-vanadatocobaltate |  |  |  |  |  |  |  |  | 7 and 6 | 7 | 7 | 7 | 8 and 9 | 8 and 9 | 7 and 8 | 7 and 8 | 
13 | strontium 10-vanadatocobaltate |  |  |  |  |  |  |  |  | 7 | 6 | 6 | 5 | 7 | 6 | 6 | 5 | 
